Data on ten compounds can be found in PubChem BioAssay AID1259407 (Chemical Carcinogenesis Research Information System (CCRIS), 2018).

This data set deals with CCRIS mutagenicity, Ames/micronucleus/aberration tests. Briefly: CCRIS mutagenicity studies.
Where [1] appears, read: Test System: AMES SALMONELLA TYPHIMURIUM, Strain/Indicator: TA97, Metabolic Activation: NONE, Method: STANDARD PLATE.
Where [2] appears, read: Test System: AMES SALMONELLA TYPHIMURIUM, Strain/Indicator: TA97, Metabolic Activation: S-9, Method: STANDARD PLATE.
Where [3] appears, read: Test System: AMES SALMONELLA TYPHIMURIUM, Strain/Indicator: TA98, Metabolic Activation: NONE, Method: STANDARD PLATE.
Where [4] appears, read: Test System: AMES SALMONELLA TYPHIMURIUM, Strain/Indicator: TA98, Metabolic Activation: S-9, Method: STANDARD PLATE.
The mark [5] stands for this setting: Test System: AMES SALMONELLA TYPHIMURIUM, Strain/Indicator: TA100, Metabolic Activation: NONE, Method: STANDARD PLATE.
The mark [6] stands for this setting: Test System: AMES SALMONELLA TYPHIMURIUM, Strain/Indicator: TA100, Metabolic Activation: S-9, Method: STANDARD PLATE.
[7] abbreviates: Test System: AMES SALMONELLA TYPHIMURIUM, Strain/Indicator: TA102, Metabolic Activation: NONE, Method: STANDARD PLATE.
[8] abbreviates: Test System: AMES SALMONELLA TYPHIMURIUM, Strain/Indicator: TA102, Metabolic Activation: S-9, Method: STANDARD PLATE.
Setting [9] is: Test System: E.COLI, Strain/Indicator: WP2 (PKM101), Metabolic Activation: NONE, Method: STANDARD PLATE.
Where [10] appears, read: Test System: E.COLI, Strain/Indicator: WP2 (PKM101), Metabolic Activation: S-9, Method: STANDARD PLATE.
Where [11] appears, read: Test System: AMES SALMONELLA TYPHIMURIUM, Strain/Indicator: TA98, Metabolic Activation: RAT, LIVER, S-9, AROCLOR 1254, Method: STANDARD PLATE.
Setting [12] is: Test System: AMES SALMONELLA TYPHIMURIUM, Strain/Indicator: TA100, Metabolic Activation: RAT, LIVER, S-9, AROCLOR 1254, Method: STANDARD PLATE.

The structures appear in SMILES notation. Calls of active or inactive are those of the source. No rule for the calls is given here.

With `Cc1cc2c(cc1C)-c1cc3ccccc3c3cccc-2c13`, under “Test System: AMES SALMONELLA TYPHIMURIUM, Strain/Indicator: TA100, Metabolic Activation: RAT, LIVER, S-9, AROCLOR 1254”, the mutagenic call is “active; positive”.
As for `CCc1cc(C(C)(C)C)c(O)c(C(C)(C)C)c1`, the mutagenic call is “inactive; negative” under setting [1]; “inactive; negative” under setting [2]; “inactive; negative” under setting [3]; “inactive; negative” under setting [4]; “inactive; negative” under setting [5]; “inactive; negative” under setting [6]. For the same compound, the mutagenic call runs as follows: under setting [7], “inactive; negative”; under setting [8], “inactive; negative”; under setting [9], “inactive; negative”; under setting [10], “inactive; negative”.
Regarding `Cc1ccc2ccc3c4ccccc4cc4ccc1c2c43`, the mutagenic call runs as follows: (Test System: AMES SALMONELLA TYPHIMURIUM, Strain/Indicator: TA100, Metabolic Activation: RAT, INTACT HEPATOCYTES, AROCLOR 1254, Method: PREINCUBATION) “active; positive”; (Test System: AMES SALMONELLA TYPHIMURIUM, Strain/Indicator: TA100, Metabolic Activation: RAT, NADPH-FORTIFIED HOMOGENIZED HEPATOCYTES, AROCLOR 1254, Method: PREINCUBATION) “active; positive”.
On to `Nc1ccc(-c2ccc(-c3ccc(N)cc3)cc2)cc1`, for which the mutagenic call runs as follows: (Test System: AMES SALMONELLA TYPHIMURIUM, Strain/Indicator: TA1538, Metabolic Activation: NONE, Method: STANDARD PLATE) “active; positive”; (Test System: AMES SALMONELLA TYPHIMURIUM, Strain/Indicator: TA1538, Metabolic Activation: RAT, LIVER, S-9, AROCLOR 1254, Method: STANDARD PLATE) “active; positive”; (Test System: CHINESE HAMSTER V-79, Strain/Indicator: V-79/6-THIOGUANINE, Metabolic Activation: NONE, Method: SUSPENSION/PLATE) “active; positive”; (Test System: CHINESE HAMSTER V-79, Strain/Indicator: V-79/6-THIOGUANINE, Metabolic Activation: RAT, LIVER, S-9, AROCLOR 1254, Method: SUSPENSION/PLATE) “inactive; negative”; (Test System: CHINESE HAMSTER V-79, Strain/Indicator: V-79/6-THIOGUANINE, Metabolic Activation: RAT, LIVER, S-9, PHENOBARBITAL AND BETA-NAPHTHOFLAVONE, Method: SUSPENSION/PLATE) “inactive; negative”.
As to `Cc1ccc2c(c1)c(=NC(=O)c1ccccc1[N+](=O)[O-])sn2C(=O)c1ccccc1[N+](=O)[O-]`, the mutagenic call under setting [6] was “inactive; negative”.
For `CCC(Cl)C(=O)O` (configuration not stated), the mutagenic call reads like this: (End Point: IN VITRO CHROMOSOMAL ABERRATIONS, Test System: CHL CELLS, Metabolic Activation: RAT, LIVER, S-9, SODIUM PHENOBARBITAL AND 5,6-BENZOFLAVONE) “inactive; negative”; (End Point: IN VITRO CHROMOSOMAL ABERRATIONS, Test System: CHL/IU CELLS, Metabolic Activation: NONE) “active; positive (structural changes)”; (End Point: IN VITRO MICRONUCLEUS, Test System: CHL/IU CELLS, Metabolic Activation: NONE) “active; positive”.
In the case of `O=C(O)c1ccc(/C=N/n2nnc3c([nH]c4ccccc43)c2=O)cc1`, the mutagenic call reads like this: (Test System: AMES SALMONELLA TYPHIMURIUM, Strain/Indicator: TA97, Metabolic Activation: NONE, Method: PREINCUBATION) “active; positive”; (Test System: AMES SALMONELLA TYPHIMURIUM, Strain/Indicator: TA97, Metabolic Activation: RAT, LIVER, S-9, AROCLOR 1254 (10%), Method: PREINCUBATION) “active; positive”; (Test System: AMES SALMONELLA TYPHIMURIUM, Strain/Indicator: TA98, Metabolic Activation: NONE, Method: PREINCUBATION) “active; positive”; (Test System: AMES SALMONELLA TYPHIMURIUM, Strain/Indicator: TA98, Metabolic Activation: RAT, LIVER, S-9, AROCLOR 1254 (10%), Method: PREINCUBATION) “active; positive”; (Test System: AMES SALMONELLA TYPHIMURIUM, Strain/Indicator: TA100, Metabolic Activation: NONE, Method: PREINCUBATION) “active; positive”; (Test System: AMES SALMONELLA TYPHIMURIUM, Strain/Indicator: TA100, Metabolic Activation: RAT, LIVER, S-9, AROCLOR 1254 (10%), Method: PREINCUBATION) “active; positive”. Besides, the mutagenic call runs as follows: (Test System: AMES SALMONELLA TYPHIMURIUM, Strain/Indicator: TA102, Metabolic Activation: NONE, Method: PREINCUBATION) “inactive; negative”; (Test System: AMES SALMONELLA TYPHIMURIUM, Strain/Indicator: TA102, Metabolic Activation: RAT, LIVER, S-9, AROCLOR 1254 (10%), Method: PREINCUBATION) “active; positive”.
Take `O=C(c1ccc([N+](=O)[O-])cc1)[C@@H]1O[C@@H]1c1ccccc1`: the mutagenic call reads like this: under setting [3], “inactive; negative”; under setting [11], “inactive; negative”; under setting [5], “active; positive”; under setting [12], “active; positive”.
Turning to `O=C(OCc1ccc(Cl)cc1)c1cccc2cccnc12`, the mutagenic call is, setting by setting: under setting [3], “inactive; negative”; under setting [11], “inactive; negative”; under setting [5], “inactive; negative”; under setting [12], “inactive; negative”; (Test System: AMES SALMONELLA TYPHIMURIUM, Strain/Indicator: TA1535, Metabolic Activation: NONE, Method: STANDARD PLATE) “inactive; negative”; (Test System: AMES SALMONELLA TYPHIMURIUM, Strain/Indicator: TA1535, Metabolic Activation: RAT, LIVER, S-9, AROCLOR 1254, Method: STANDARD PLATE) “inactive; negative”. Moreover, the mutagenic call (Test System: AMES SALMONELLA TYPHIMURIUM, Strain/Indicator: TA1537, Metabolic Activation: NONE, Method: STANDARD PLATE) is “inactive; negative” and the mutagenic call (Test System: AMES SALMONELLA TYPHIMURIUM, Strain/Indicator: TA1537, Metabolic Activation: RAT, LIVER, S-9, AROCLOR 1254, Method: STANDARD PLATE) was “inactive; negative”.
Turning to `CC(C)(c1ccc(OP(O)O)cc1)c1ccc(OP(O)O)cc1`, the mutagenic call is “inactive; negative” under setting [1]; “inactive; negative” under setting [2]; “inactive; negative” under setting [3]; “inactive; negative” under setting [4]; “inactive; negative” under setting [5]; “inactive; negative” under setting [6]. Moreover, the mutagenic call is, setting by setting: under setting [7], “inactive; negative”; under setting [8], “inactive; negative”; under setting [9], “inactive; negative”; under setting [10], “inactive; negative”.
